Read-outs that look alike come from different tables or passages of the source.
Test system: HCV
Assay: Cell-based HCV infection NS3 protease FRET assay in DMSO-Huh7 cells; also: test concentration or dose not given here
Set-up: species or system hepatitis C virus (HCV)
[1] = DMSO-Huh7 cells infected with HCV at 0.05 ffu/cell, HCV NS3 protein levels by FRET, day 6 p.i.

Structure (SMILES) | Ave % inhibition | Ave % inhibition [1]
C[C@@H]1CC[C@@H]2[C@@H](O)[C@H](O)[C@@H](CO)N12 [Compound 14, (1R,2R,3R,5R,7aR)-3-(hydroxymethyl)-5-methylhexahydro-1H-pyrrolizine-1,2-diol] | + (+: ≦19%) | 
OC[C@H]1N[C@H](CO)[C@@H](O)[C@H](O)[C@H]1O [Compound 15, (2R,3S,4R,5R,6R)-2,6-bis(hydroxymethyl)piperidine-3,4,5-triol] |  | ++ (++: 20-39%)
CCCC(=O)O[C@H]1CN2CC[C@H](O)C2[C@@H](O)[C@@H]1O (stereo partly drawn) [Compound 46, (1S,6S,7S,8R)-1,7,8-trihydroxyoctahydroindolizin-6-yl butyrate] |  | ++ (++: 20-39%)
CC[C@@H]1NC[C@@H](O)[C@H](O)[C@H]1O [Compound 72, (2S,3S,4S,5R)-2-ethylpiperidine-3,4,5-triol] |  | ++ (++: 20-39%)
[O-][N@@+]12C[C@H](O)[C@H](O)[C@@H]1[C@@H](O)[C@H](O)[C@@H]2CO [Compound 81, (1R,2R,3S,4R,6S,7R,7aR)-1,2,6,7-tetrahydroxy-3-(hydroxymethyl)octahydropyrrolizine 4-oxide] | ++ (++: 20-39%) | 
O=C(O)[C@@]1(O)CNC[C@@H](O)[C@H]1O [Compound 87, (3R,4R,5R)-3,4,5-trihydroxypiperidine-3-carboxylic acid] |  | +++ (+++: 40-59%)
CCCCN1C[C@H](O)[C@@H](O)[C@H](O)[C@H]1CO [Compound 118, (2R,3R,4R,5S)-1-butyl-2-(hydroxymethyl)piperidine-3,4,5-triol] |  | ++ (++: 20-39%)
C[C@H]1N[C@@H](CO)[C@H](O)[C@H]1O [Compound 119, (2S,3S,4S,5R)-2-(hydroxymethyl)-5-methylpyrrolidine-3,4-diol] |  | ++ (++: 20-39%)
CCCC(=O)OC[C@@H]1[C@@H](OC(=O)CCC)[C@H](OC(=O)CCC)[C@H]2[C@H](OC(=O)CCC)[C@@H](OC(=O)CCC)CN21 [Compound 132, (1R,2R,3R,6S,7S,7aR)-3-(butyryloxymethyl)hexahydro-1H-pyrrolizine-1,2,6,7-tetrayl tetrabutyrate] |  | ++ (++: 20-39%)
CC(=O)OC[C@H]1[C@@H](OC(C)=O)[C@H](OC(C)=O)[C@H]2[C@H](OC(C)=O)[C@@H](OC(C)=O)CN21 [Compound 136, (1R,2R,3S,6S,7S,7aR)-3-(acetoxymethyl)hexahydro-1H-pyrrolizine-1,2,6,7-tetrayl tetraacetate] |  | ++ (++: 20-39%)
CC(=O)OC[C@H]1[C@@H](OC(C)=O)[C@H](OC(C)=O)[C@H]2[C@@H](OC(C)=O)[C@@H](OC(C)=O)CN21 [Compound 144, (1R,2R,3S,6S,7R,7aR)-3-(acetoxymethyl)hexahydro-1H-pyrrolizine-1,2,6,7-tetrayl tetraacetate] |  | ++ (++: 20-39%)
OCCN1C[C@@H](O)[C@@H](O)[C@H]1[C@H](O)CO [Compound 145, (2R,3S,4R)-2-((S)-1,2-dihydroxyethyl)-1-(2-hydroxyethyl)pyrrolidine-3,4-diol] |  | +++ (+++: 40-59%)
C[C@H]1C[C@@H](O)[C@@H]2[C@H](O)[C@H](O)[C@@H](CO)N21 [Compound 149, (1S,2R,3R,5S,7R,7aR)-3-(hydroxymethyl)-5-methylhexahydro-1H-pyrrolizine-1,2,7-triol] | ++ (++: 20-39%) | 
O[C@@H]1[C@@H]2[C@@H](O)CCCN2C[C@@H]1O [Compound 153, (1R,2S,8S,8aS)-octahydroindolizine-1,2,8-triol] |  | ++ (++: 20-39%)
OC[C@@H](O)[C@@H]1NC[C@H](O)[C@@H]1O [Compound 155, (2S,3R,4S)-2-((S)-1,2-dihydroxyethyl)pyrrolidine-3,4-diol] | ++ (++: 20-39%) | 
CCCCN1C[C@H](O)[C@H](O)[C@@H]1CO [Compound 162, (2S,3R,4S)-1-butyl-2-(hydroxymethyl)pyrrolidine-3,4-diol] |  | ++ (++: 20-39%)
CCCCN1C[C@@H](N=[N+]=[N-])C[C@H]1CO [Compound 275, ((2S,4S)-4-azido-1-butylpyrrolidin-2-yl)methanol] |  | ++ (++: 20-39%)
CCCCCCCCCN1C[C@@H](O)[C@@H](O)[C@@H]1[C@@H](O)CO [Compound 316, (2S,3S,4R)-2-((R)-1,2-dihydroxyethyl)-1-nonylpyrrolidine-3,4-diol] |  | +++ (+++: 40-59%)
CCCCCCCCCN1C[C@H](NC(C)=O)[C@@H](O)[C@@H]1CO [Compound 338, N-((3S,4R,5S)-4-hydroxy-5-(hydroxymethyl)-1-nonylpyrrolidin-3-yl)acetamide] |  | ++ (++: 20-39%)
CCCCCCCCCN1C[C@@H](NC(C)=O)C[C@H]1CO [Compound 348, N-((3S,5S)-5-(hydroxymethyl)-1-nonylpyrrolidin-3-yl)acetamide] |  | ++++ (++++: 60-79%)
CCCCCCCCCN1C[C@H](O)[C@H](O)[C@@H]1[C@@H](O)[C@H](O)CO [Compound 404, (1R,2R)-1-((2R,3R,4S)-3,4-dihydroxy-1-nonylpyrrolidin-2-yl)propane-1,2,3-triol] |  | +++ (+++: 40-59%)

Structure (SMILES) | Ave % inhibition | Ave % inhibition [1]
CCCCCCCCCN1C[C@@H](O)[C@@H](O)[C@@H]1[C@H](O)CO [Compound 427, (2S,3S,4R)-2-((S)-1,2-dihydroxyethyl)-1-nonylpyrrolidine-3,4-diol] |  | +++ (+++: 40-59%)
O=C(O)[C@H]1C[C@H](O)CN1 [Compound 477, trans-4-Hydroxy-D-proline] | + (+: ≦19%) | 
CC1(C)O[C@H]2[C@H](CN(Cc3ccccc3)[C@@H]2CN)O1 [Compound 483, ((3aR,4R,6aS)-5-benzyl-2,2-dimethyltetrahydro-3aH-[1,3]dioxolo[4,5-c]pyrrol-4-yl)methanamine] |  | ++ (++: 20-39%)
O=C(O)CCCN1C[C@@H](O)[C@H](O)[C@H]1CO [Compound 499, 4-[(2R,3R,4R)-3,4-dihydroxy-2-(hydroxymethyl)pyrrolidin-1-yl]butanoic acid] |  | ++ (++: 20-39%)
OC[C@H]1[C@H](O)[C@@H](O)CN1Cc1ccccc1 [Compound 500, (2S,3S,4S)-1-benzyl-2-(hydroxymethyl)pyrrolidine-3,4-diol] |  | ++ (++: 20-39%)
C[C@@]1(C(=O)O)NC[C@H](O)[C@H]1O [Compound 504, (2R,3S,4S)-3,4-dihydroxy-2-methylpyrrolidine-2-carboxylic acid] |  | ++ (++: 20-39%)
[N-]=[N+]=NC[C@H]1[C@@H](O)[C@@H](O)CN1Cc1ccccc1 [Compound 506, (2S,3R,4S)-2-(azidomethyl)-1-benzylpyrrolidine-3,4-diol] |  | +++ (+++: 40-59%)
CC(=O)NC[C@@H]1[C@@H](O)[C@@H](O)CN1CCCCCCCCCO [Compound 511, N-(((2R,3R,4S)-3,4-dihydroxy-1-(9-hydroxynonyl)pyrrolidin-2-yl)methyl)acetamide] |  | ++ (++: 20-39%)
CCCCCCCCCN1C[C@H](O)[C@H](O)[C@H]1CNC(C)=O [Compound 512, N-(((2R,3R,4S)-3,4-dihydroxy-1-nonylpyrrolidin-2-yl)methyl)acetamide] |  | +++ (+++: 40-59%)
O=C(O)CN1C[C@H](O)[C@H](O)[C@@H]1[C@@H](O)[C@H](O)[C@H](O)CO [Compound 530, 2-((2R,3R,4S)-3,4-dihydroxy-2-((1R,2S,3R)-1,2,3,4-tetrahydroxybutyl)pyrrolidin-1-yl)acetic acid] |  | ++ (++: 20-39%)
CCCCCCCCCN1C[C@H](O)[C@@H](O)[C@H](O)[C@H]1CO [Compound 550, (2R,3R,4R,5S)-2-(hydroxymethyl)-1-nonylpiperidine-3,4,5-triol] | ++ (++: 20-39%) | 
OCCCCCCCCCN1[C@H](CO)[C@@H](O)[C@H](O)[C@H]1CO [Compound 557, (2R,3R,4R,5R)-2,5-bis(hydroxymethyl)-1-(9-hydroxynonyl)pyrrolidine-3,4-diol] |  | ++ (++: 20-39%)
OC[C@@H]1[C@@H](O)[C@H](O)[C@@H](CO)N1Cc1ccc(-c2ccccc2)cc1 [Compound 558, (2R,3R,4R,5R)-1-(biphenyl-4-ylmethyl)-2,5-bis(hydroxymethyl)pyrrolidine-3,4-diol] |  | +++ (+++: 40-59%)
OC[C@@H]1[C@@H](O)[C@H](O)[C@@H](CO)N1Cc1ccc(-c2ccccc2)cc1 [Compound 559, (2R,3R,4R,5R)-1-(biphenyl-4-ylmethyl)-2,5-bis(hydroxymethyl)pyrrolidine-3,4-diol] |  | ++++ (++++: 60-79%)
C[C@@H](N)CCC[C@@H]1N[C@@H](CO)[C@H](O)[C@H]1O [Compound 561, (2S,3S,4S,5S)-2-((R)-4-aminopentyl)-5-(hydroxymethyl)pyrrolidine-3,4-diol] |  | ++++ (++++: 60-79%)
C[C@H](N)CCC[C@@H]1N[C@@H](CO)[C@H](O)[C@H]1O [Compound 562, (2S,3S,4S,5S)-2-((S)-4-aminopentyl)-5-(hydroxymethyl)pyrrolidine-3,4-diol] |  | ++++ (++++: 60-79%)
CC(=O)N[C@@H]1CNC[C@@H](O)[C@H]1O [Compound 563, N-((3R,4S,5R)-4,5-dihydroxypiperidin-3-yl)acetamide] |  | ++++ (++++: 60-79%)
CCCCCCCCCN1C[C@H](O)[C@H](O)[C@@H]1CNC(C)=O [Compound 587, N-(((2S,3R,4S)-3,4-dihydroxy-1-nonylpyrrolidin-2-yl)methyl)acetamide] |  | +++ (+++: 40-59%)
CC(=O)NC[C@H]1[C@@H](O)[C@@H](O)CN1CCN1CCCCC1 [Compound 616, N-(((2S,3R,4S)-3,4-dihydroxy-1-(2-(piperidin-1-yl)ethyl)pyrrolidin-2-yl)methyl)acetamide] |  | ++ (++: 20-39%)
CCCCCCCCCN1C[C@H](O)[C@H](O)[C@@H]1CNC(=O)c1ccccc1 [Compound 622, N-(((2S,3R,4S)-3,4-dihydroxy-1-nonylpyrrolidin-2-yl)methyl)benzamide] |  | +++++ (+++++: ≧80%)
OC[C@H]1[C@H](O)[C@H](O)CN1Cc1ccc(-c2ccccc2)cc1 [Compound 623, (2S,3S,4R)-1-(biphenyl-4-ylmethyl)-2-(hydroxymethyl)pyrrolidine-3,4-diol] |  | ++ (++: 20-39%)

From patent publication US20110195929A1, “COMPOUNDS FOR THE TREATMENT OF FLAVIVIRAL INFECTIONS” (SUMMIT CORPORATION PLC, priority 2008, published 2011)
